Results on 14 molecules are retold here after patent US20250034182A1, “PHOSPHOLIPID COMPOUNDS AND METHODS OF MAKING AND USING THE SAME” (priority 2021, published 2025).

Experiment [1] relates to Respiratory syncytial virus recombinant with luciferase (RSV-Luc5) in HEp-2 cells. Description: HEp-2 RSV-Luc5 384-well assay (EC50 RSVFLUC Hep2-384 v2, Example V). The class given is cell-based. To be noted: human respiratory syncytial virus, HEp-2, 72 h, read-out: RSV Hep-2 FLuc EC50 (v2) (nM) (per Ex. V). The method, boiled down:
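HEp-2 cells (4,000/well) infected with RSV-Luc5 at MOI 0.5 in DMEM/10% FBS with compound, 10-point 1:3 dilutions, 3 days at 37 °C. Replication read by One-Glo luminescence, normalized to remdesivir (0%) and DMSO (100%). EC50 from non-linear regression as concentration giving 50% reduction.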

For experiment [2], the system named is Human Rhinovirus 16 (HRV16) in H1-HeLa cells. The experiment is described as follows: H1-HeLa HRV-CTG EC50, HRV16 (Example Z). To be noted: Rhinovirus A, HRV16, 96 h, MOI 0.25, 4 days, Celltiter-Glo, read-out: HRV 16 HELA EC50 (nM) (per Ex. Z). The class given is cell-based. The source says: H1-Hela cell line (ATCC, Manassas, VA, Cat #CRL-1958) was maintained in Dulbecco's […] (DMEM) (Corning, New York, NY, Cat #15-018CM) supplemented with 10% fetal bovine serum (FBS) (Hyclone, Logan, UT, Cat #SH30071-03), and 1× Penicillin-Streptomycin-L-Glutamine (Coming, New York, NY, Cat #30-009-C1). Cells were passaged 2 times per week to maintain sub-confluent densities and were used for experiments at passage 5-30. The Human Rhinovirus 1B (HRV1B) (ATCC, Manassas, VA, Cat #VR-1645), Human Rhinovirus 14 (HRV14) (ATCC, Manassas, VA, Cat #VR-284), and Human Rhinovirus 16 (HRV16) (ATCC, Manassas, VA, Cat #BR-283) was obtained through ATCC. Viral infection was monitored by determining viability of H1-HeLa cells as described below.
Test molecules are prepared in 100% DMSO in 384-well polypropylene plates (Greiner, Monroe, NC, Cat #784201) with 8 compounds per plate in grouped replicates of 4 at 10 serially diluted concentrations (1:3). The serially diluted compounds were transferred to low dead volume Echo plates (Labcyte, Sunnyvale, CA, Cat #LP-0200).
The test compounds were spotted to 384-well assay plates (Greiner, Monroe, NC, Cat #781091) at 200 nL per well using an Echo acoustic dispenser (Labcyte, Sunnyvale, CA). H1-HeLa cells were harvested and suspended in DMEM (supplemented with 2% FBS and 1× Penicillin-Streptomycin-L-Glutamine) and seeded to the pre-spotted assay plates at 5,000 cells per well in 30 μL. HRV1B, HRV14, and HRV16 was diluted in DMEM (supplemented with 2% FBS and 1× Penicillin-Streptomycin-L-Glutamine) at 97.1 million Infectious Units (IU) per mL, 151 million IU per mL and 221 million IU per mL respectively. 10 μL of virus per well was added to the assay plates containing cells and compounds, for an MOI of 0.5, 1.0, and 0.25 respectively. The assay plates were incubated for 4 days at 37° C. and 5% CO2. At the end of incubation, Celltiter-Glo (Promega, Madison, WI, Cat #G7573) was prepared. The assay plates and Celltiter-Glo reagent were equilibrated to room temperature for at least 15 minutes. 40 μL per well of Celltiter-Glo reagent was added and the plates were incubated at room temperature for 15 minutes before reading the luminescence signal on an EnVision multimode plate reader (Perkin Elmer, Waltham, MA). Rupintrivir was used as positive control and DMSO was used as negative control. Values were normalized to the positive and negative controls (as 0% and 100% replication, respectively) and data was fitted using non-linear regression analysis by Gilead's dose response tool. The EC50 value for each compound was defined as the concentration reducing viral replication by 50%.
(ATP-based viability assays read luminescence as a measure of living cells.)

A word on the EC50: it is the concentration needed to bring the measured effect to its halfway point. Consider `CCCCCCCCCCCCCCCCCCOC[C@H](COP(=O)(O)OC[C@@]1(C#N)O[C@@H](c2ccc3c(N)ncnn23)[C@H](O)[C@@H]1O)OCc1cc(F)cc(C#N)c1` [Compound 1, ((2R,3S,4R,5S)-5-(4-aminopyrrolo[2,1-f][1,2,4]triazin-7-yl)-2-cyano-3,4-dihydroxytetrahydrofuran-2-yl)methyl ((R)-2-((3-cyano-5-fluorobenzyl)oxy)-3-(octadecyloxy)propyl) hydrogen phosphate], for which the EC50 in experiment [1] was found to be 229 nM; in experiment [2], 8 nM. In the same order, the values of `CCCCCCCCCCCCCCCCCCOC[C@H](COP(=O)(O)OC[C@@]1(C#N)O[C@@H](c2ccc3c(N)ncnn23)[C@H](O)[C@@H]1O)OCc1ccc(C#N)c(Cl)c1` [Compound 7, ((2R,3S,4R,5S)-5-(4-aminopyrrolo[2,1-f][1,2,4]triazin-7-yl)-2-cyano-3,4-dihydroxytetrahydrofuran-2-yl)methyl ((R)-2-((3-chloro-4-cyanobenzyl)oxy)-3-(octadecyloxy)propyl) hydrogen phosphate] are 284 nM and 40 nM. Take `CCCCCCCCCCCCCCCCCCOC[C@H](COP(=O)(O)OC[C@@]1(C#N)O[C@@H](c2ccc3c(N)ncnn23)[C@H](O)[C@@H]1O)OCc1ccc(C#N)c(-n2cncn2)c1` [Compound 16, ((2R,3S,4R,5S)-5-(4-aminopyrrolo[2,1-f][1,2,4]triazin-7-yl)-2-cyano-3,4-dihydroxytetrahydrofuran-2-yl)methyl ((R)-2-((4-cyano-3-(1H-1,2,4-triazol-1-yl)benzyl)oxy)-3-(octadecyloxy)propyl) hydrogen phosphate]: the EC50 was 36 nM in experiment [1] and 10 nM in experiment [2]. On to `CCCCCCCCCCCCCCCCCCOC[C@H](COP(=O)(O)OC[C@@]1(C#N)O[C@@H](c2ccc3c(N)ncnn23)[C@H](O)[C@@H]1O)OCc1ccc(C#N)nc1` [Compound 19, ((2R,3S,4R,5S)-5-(4-aminopyrrolo[2,1-f][1,2,4]triazin-7-yl)-2-cyano-3,4-dihydroxytetrahydrofuran-2-yl)methyl ((R)-2-((6-cyanopyridin-3-yl)methoxy)-3-(octadecyloxy)propyl) hydrogen phosphate], for which the EC50 in experiment [1] was found to be 60 nM.

`CCCCCCCCCCCCCCCCCCOC[C@H](COP(=O)(O)OC[C@@]1(C#N)O[C@@H](c2ccc3c(N)ncnn23)[C@H](O)[C@@H]1O)Oc1cccc(C#N)n1` [Compound 21, ((2R,3S,4R,5S)-5-(4-aminopyrrolo[2,1-f][1,2,4]triazin-7-yl)-2-cyano-3,4-dihydroxytetrahydrofuran-2-yl)methyl ((R)-2-((6-cyanopyridin-2-yl)oxy)-3-(octadecyloxy)propyl) hydrogen phosphate]: the results for the EC50 in experiment [1] and in experiment [2] were 222 nM and 50 nM, respectively. `CCCCCCCCCCCCCCCCCCOC[C@H](COP(=O)(O)OC[C@@]1(C#N)O[C@@H](c2ccc3c(N)ncnn23)[C@H](O)[C@@H]1O)Oc1ccc(C#N)c(OC(C)C)c1` [Compound 23, ((2R,3S,4R,5S)-5-(4-aminopyrrolo[2,1-f][1,2,4]triazin-7-yl)-2-cyano-3,4-dihydroxytetrahydrofuran-2-yl)methyl ((R)-2-(4-cyano-3-isopropoxyphenoxy)-3-(octadecyloxy)propyl) hydrogen phosphate]: the EC50 in experiment [1] was 71 nM; in experiment [2] it was 7 nM. Turning to `CCCCCCCCCCCCCCCCCCC[C@H](COP(=O)(O)OC[C@@]1(C#N)O[C@@H](c2ccc3c(N)ncnn23)[C@H](O)[C@@H]1O)OCc1cc(F)cc(C#N)c1` [Compound 25, ((2R,3S,4R,5S)-5-(4-aminopyrrolo[2,1-f][1,2,4]triazin-7-yl)-2-cyano-3,4-dihydroxytetrahydrofuran-2-yl)methyl ((R)-2-((3-cyano-5-fluorobenzyl)oxy)henicosyl) hydrogen phosphate], the figures for the EC50 in experiment [1] and in experiment [2] were 2920 nM and 99 nM, respectively. Take `CCCCCCCCCCCCCCCCCCC[C@H](COP(=O)(O)OC[C@@]1(C#N)O[C@@H](c2ccc3c(N)ncnn23)[C@H](O)[C@@H]1O)OCc1ccc(C#N)c(OC(C)C)c1` [Compound 28, ((2R,3S,4R,5S)-5-(4-aminopyrrolo[2,1-f][1,2,4]triazin-7-yl)-2-cyano-3,4-dihydroxytetrahydrofuran-2-yl)methyl ((R)-2-((4-cyano-3-isopropoxybenzyl)oxy)henicosyl) hydrogen phosphate]: the results for the EC50 in experiment [1] and in experiment [2] were 353 nM and 51 nM, respectively. In the case of `CCCCCCCCCCCCCCCCCCC[C@H](COP(=O)(O)OC[C@@]1(C#N)O[C@@H](c2ccc3c(N)ncnn23)[C@H](O)[C@@H]1O)OCc1ccc(-n2cncn2)c(C#N)c1` [Compound 30, ((2R,3S,4R)-5-(4-aminopyrrolo[2,1-f][1,2,4]triazin-7-yl)-2-cyano-3,4-dihydroxytetrahydrofuran-2-yl)methyl ((R)-2-((3-cyano-4-(1H-1,2,4-triazol-1-yl)benzyl)oxy)henicosyl) hydrogen phosphate], the results for the EC50 in experiment [1] and in experiment [2] were 115 nM and 11 nM, respectively. For the molecule `CCCCCCCCCCCCCCCCC[C@H](COP(=O)(O)OC[C@@]1(C#N)O[C@@H](c2ccc3c(N)ncnn23)[C@H](O)[C@@H]1O)OCc1cc(Cl)cc(C#N)c1` [Compound 76, ((2R,3S,4R)-5-(4-aminopyrrolo[2,1-f][1,2,4]triazin-7-yl)-2-cyano-3,4-dihydroxytetrahydrofuran-2-yl)methyl ((R)-2-((3-chloro-5-cyanobenzyl)oxy)nonadecyl) hydrogen phosphate], in experiment [1], the EC50 came out at 382 nM.

Turning to `CCCCCCCCCCCCCCCCCC[C@H](COP(=O)(O)OC[C@@]1(C#N)O[C@@H](c2ccc3c(N)ncnn23)[C@H](O)[C@@H]1O)OCc1cc(Cl)cc(C#N)c1` [Compound 81, ((2R,3S,4R,5S)-5-(4-aminopyrrolo[2,1-f][1,2,4]triazin-7-yl)-2-cyano-3,4-dihydroxytetrahydrofuran-2-yl)methyl ((R)-2-((3-chloro-5-cyanobenzyl)oxy)icosyl) hydrogen phosphate], the EC50 in experiment [1] turned out to be 445 nM.

On to `CCCCCCCCCCCCCCCCCCC[C@H](COP(=O)(O)OC[C@@]1(C#N)O[C@@H](c2ccc3c(N)ncnn23)[C@H](O)[C@@H]1O)OCc1cc(Cl)cc(C#N)c1` [Compound 82, ((2R,3S,4R,5S)-5-(4-aminopyrrolo[2,1-f][1,2,4]triazin-7-yl)-2-cyano-3,4-dihydroxytetrahydrofuran-2-yl)methyl ((R)-2-((3-chloro-5-cyanobenzyl)oxy)henicosyl) hydrogen phosphate], for which the EC50 in experiment [1] came out at 1250 nM.

For the molecule `CCCCCCCCCCCCCCCCCC[C@H](COP(=O)(O)OC[C@@]1(C#N)O[C@@H](c2ccc3c(N)ncnn23)[C@H](O)[C@@H]1O)OCc1cc(F)cc(C#N)c1` [Compound 84, ((2R,3S,4R,5S)-5-(4-aminopyrrolo[2,1-f][1,2,4]triazin-7-yl)-2-cyano-3,4-dihydroxytetrahydrofuran-2-yl)methyl ((R)-2-((3-cyano-5-fluorobenzyl)oxy)icosyl) hydrogen phosphate], in experiment [1], the EC50 is 325 nM.

As to `CCCCCCCCCCCCCCCCOC[C@@H](COP(=O)(O)OC[C@@]1(C#N)O[C@@H](c2ccc3c(N)ncnn23)[C@H](O)[C@@H]1O)OCc1cc(F)cc(C#N)c1` [Compound 88, ((2R,3S,4R,5S)-5-(4-aminopyrrolo[2,1-f][1,2,4]triazin-7-yl)-2-cyano-3,4-dihydroxytetrahydrofuran-2-yl)methyl ((S)-2-((3-cyano-5-fluorobenzyl)oxy)-3-(hexadecyloxy)propyl) hydrogen phosphate], the EC50 in experiment [1] came to 191 nM.
